# Laboratory results as given in ChEMBL document CHEMBL1201862, “PubChem BioAssay data set” (2004).
#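 Method: 48-hour compound exposure of cells in 96-well plates, five concentrations, linear interpolation of endpoints. GI50 = concentration required for 50% inhibition of growth.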 Calls of active or inactive are those of the source. Cut-off read from the data, not from the text of the source: active = GI50 up to about 1.1 µM and inactive = higher.
# Legend:
# Assay in all cases: NCI-60 cell line screen, 48 h
# A549 = system: A549
# OVCAR-5 = system: OVCAR-5
# Malme-3M = system: Malme-3M
# HCT-15 = system: HCT-15
# NCI-H226 = system: NCI-H226
# OVCAR-8 = system: OVCAR-8
# SK-MEL-5 = system: SK-MEL-5
# LOX IMVI = system: LOX IMVI
# UO-31 = system: UO-31
# SF-295 = system: SF-295
# CCRF-CEM = system: CCRF-CEM
# 786-0 = system: 786-0
# MDA-N = system: MDA-N
# ACHN = system: ACHN
# UACC-62 = system: UACC-62
# COLO 205 = system: COLO 205
# KM12 = system: KM12
# K562 = system: K562
# RXF 393 = system: RXF 393
# U-251 = system: U-251
Compound,GI50 (A549),GI50 (OVCAR-5),GI50 (Malme-3M),GI50 (HCT-15) [µM],GI50 (NCI-H226),GI50 (OVCAR-8),GI50 (SK-MEL-5),GI50 (LOX IMVI),GI50 (UO-31),GI50 (SF-295),GI50 (CCRF-CEM),GI50 (786-0),GI50 (MDA-N),GI50 (ACHN),GI50 (UACC-62),GI50 (COLO 205),GI50 (KM12),GI50 (K562),GI50 (RXF 393),GI50 (U-251)
CC(C)SC(=S)Sc1c(Cl)c(Cl)nc(Cl)c1Cl,16.9 µM (inactive),16.3 µM (inactive),15.7 µM (inactive),2.97,24.9 µM (inactive),3.46 µM (inactive),14.8 µM (inactive),2.39 µM (inactive),8 µM (inactive),16.3 µM (inactive),1.91 µM (inactive),2.33 µM (inactive),5.27 µM (inactive),6.98 µM (inactive),9.35 µM (inactive),8.55 µM (inactive),8.24 µM (inactive),2.97 µM (inactive),4.57 µM (inactive),3.98 µM (inactive)
CCOP(=O)(O)C(C)(C)NC,> 100 µM (inactive),> 100 µM (inactive),> 100 µM (inactive),> 100,> 100 µM (inactive),> 100 µM (inactive),> 100 µM (inactive),> 100 µM (inactive),> 100 µM (inactive),> 100 µM (inactive),> 100 µM (inactive),> 100 µM (inactive),> 100 µM (inactive),> 100 µM (inactive),> 100 µM (inactive),> 100 µM (inactive),> 100 µM (inactive),> 100 µM (inactive),> 100 µM (inactive),> 100 µM (inactive)
NC(=O)c1cc2ccc(O)cc2o/c1=N/c1ccccc1,25.6 µM (inactive),67.9 µM (inactive),50.8 µM (inactive),26.4,17.1 µM (inactive),30.3 µM (inactive),18.4 µM (inactive),24 µM (inactive),3.6 µM (inactive),43.5 µM (inactive),37.5 µM (inactive),30.3 µM (inactive),22.5 µM (inactive),24.9 µM (inactive),28.5 µM (inactive),18.5 µM (inactive),27.2 µM (inactive),34.5 µM (inactive),26.2 µM (inactive),34.7 µM (inactive)
